Experimental data as given in patent US9605005B2, “Alkynyl alcohols and methods of use” (Genentech, Inc., priority 2013, dated 2017).

Assays:
[1] = system: p52 (NF-kB2) nuclear translocation, HeLa cells; test: p52 (NF-kB2) nuclear translocation assay in HeLa cells (non-classical NF-kB signaling, anti-lymphotoxin beta receptor antibody stimulated); assay type: cell-based; conditions: Homo sapiens, 100 ng/mL anti-lymphotoxin beta receptor antibody for 5 hours, read-out: p52 HeLa Transloc Assay (IC50)
Method in brief: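 HeLa cells in 10% FBS medium were treated with compound (0.2% DMSO final) and stimulated with 100 ng/mL anti-lymphotoxin beta receptor antibody for 5 h. Fixed cells were immunostained for p52 and imaged with DRAQ5 nuclear stain. Translocation is the nuclear to cytoplasmic intensity ratio, and IC50 values are in micromolar.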

[2] = system: REL-A (p65) nuclear translocation, HeLa cells; test: REL-A (p65) nuclear translocation assay in HeLa cells (classical NF-kB signaling, TNF-α stimulated); assay type: cell-based; conditions: Homo sapiens, 0.5 h; HeLa cells, 10 ng/mL TNF-α for 30 minutes; read-out: REL-A HeLa Transloc Assay (IC50)
Method in brief: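 HeLa cells were exposed to test compounds at various concentrations (0.2% DMSO final) in medium with 10% fetal bovine serum for 4.5 hours, then stimulated for 30 minutes with 10 ng/mL TNF-α. After fixation in 4% paraformaldehyde, 0.1% Triton X-100 permeabilization and staining with 400 ng/mL anti-REL-A (p65) antibody, Alexa488 secondary and DRAQ5, Opera imaging gave nuclear-to-cytoplasmic signal ratios to calculate IC50.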

[3] = molecular target: nuclear factor-kappa B (NF-kB)-inducing kinase (NIK) (Homo sapiens (Human), UniProt Q99558); test: NIK enzyme inhibition assay (Transcreener ADP, NIK ADP-FP); assay type: biochemical; conditions: purified NIK 0.5 nM, 10 μM ATP, fluorescence polarization; read-out: NIK ADP-FP (Ki μM)
Sequence of nuclear factor-kappa B (NF-kB)-inducing kinase (NIK) (Q99558 whole entry): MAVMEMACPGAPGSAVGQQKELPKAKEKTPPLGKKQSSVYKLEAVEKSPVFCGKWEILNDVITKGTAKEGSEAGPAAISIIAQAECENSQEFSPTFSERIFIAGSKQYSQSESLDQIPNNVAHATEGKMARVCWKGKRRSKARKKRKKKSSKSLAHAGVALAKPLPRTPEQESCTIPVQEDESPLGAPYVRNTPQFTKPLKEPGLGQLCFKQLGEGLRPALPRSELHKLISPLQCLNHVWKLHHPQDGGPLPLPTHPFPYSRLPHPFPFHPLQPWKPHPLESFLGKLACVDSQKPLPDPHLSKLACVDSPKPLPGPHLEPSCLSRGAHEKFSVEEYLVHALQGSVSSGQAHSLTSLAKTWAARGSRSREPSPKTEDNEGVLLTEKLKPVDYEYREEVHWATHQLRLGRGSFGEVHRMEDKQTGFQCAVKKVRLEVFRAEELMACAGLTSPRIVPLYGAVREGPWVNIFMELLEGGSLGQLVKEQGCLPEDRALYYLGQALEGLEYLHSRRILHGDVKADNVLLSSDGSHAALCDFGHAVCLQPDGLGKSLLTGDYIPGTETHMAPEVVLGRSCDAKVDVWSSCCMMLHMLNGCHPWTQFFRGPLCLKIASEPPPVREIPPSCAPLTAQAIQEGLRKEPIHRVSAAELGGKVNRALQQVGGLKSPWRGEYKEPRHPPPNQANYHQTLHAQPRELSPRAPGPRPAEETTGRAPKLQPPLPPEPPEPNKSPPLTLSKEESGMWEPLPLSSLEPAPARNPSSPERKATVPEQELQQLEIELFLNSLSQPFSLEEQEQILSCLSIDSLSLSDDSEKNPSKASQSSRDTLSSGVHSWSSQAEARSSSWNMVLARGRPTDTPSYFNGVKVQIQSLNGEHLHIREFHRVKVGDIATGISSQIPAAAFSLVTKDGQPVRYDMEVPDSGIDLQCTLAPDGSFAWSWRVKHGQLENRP

Compound	IC50 [1]	IC50 [2]	Ki [3]
C[C@@](O)(C#Cc1cccc(-n2nc(C(N)=O)c3ccccc32)c1)c1c[nH]nn1 [Compound 117, 1-[3-[(3R)-3-hydroxy-3-(1H-triazol-4-yl)but-1-ynyl]phe-nyl]indazole-3-carboxamide]	74.3 nM	20000 nM	0.32 nM
CN1CC[C@@](O)(C#Cc2cccc(-n3nc(C(N)=O)c4c3CCC4)c2)C1=O [Compound 119, 1-[3-[2-[(3R)-3-hydroxy-1-methyl-2-oxo-pyrrolidin-3-yl]ethynyl]phenyl]-5,6-dihydro-4H-cyclopenta[c]pyrazole-3-carboxamide]	45.8 nM	20000 nM	0.43 nM
CN1CC[C@@](O)(C#Cc2cccc(-n3nc(C(N)=O)c4c3CCN(c3ccncn3)C4)c2)C1=O [Compound 120, 1-[3-[2-[(3R)-3-hydroxy-1-methyl-2-oxo-pyrrolidin-3-yl]ethynyl]phenyl]-5-pyrimi-din-4-yl-6,7-dihydro-4H-pyra-zolo[4,5-c]pyridine-3-carbox-amide]	1430 nM	20000 nM	0.52 nM
CN1CC[C@@](O)(C#Cc2cccc(-n3nc(C(N)=O)c4c3CCN(c3ncccn3)C4)c2)C1=O [Compound 121, 1-[3-[2-[(3R)-3-hydroxy-1-methyl-2-oxo-pyrrolidin-3-yl]ethynyl]phenyl]-5-pyrimi-din-2-yl-6,7-dihydro-4H-pyra-zolo[4,3-c]pyridine-3-carbox-amide]	203 nM	20000 nM	1.05 nM
CN1CC[C@@](O)(C#Cc2cccc(-n3nc(C(N)=O)c4c3CCN(c3nccs3)C4)c2)C1=O [Compound 122, 1-[3-[2-[(3R)-3-hydroxy-1-methyl-2-oxo-pyrrolidin-3-yl]ethynyl]phenyl]-5-thiazol-2-yl-6,7-dihydro-4H-pyra-zolo[4,3-c]pyridine-3-carbox-amide]	266 nM	20000 nM	0.29 nM
CCNc1nccc2c1c(C(N)=O)nn2-c1cccc(C#C[C@]2(O)CCN(C)C2=O)c1 [Compound 129, 4-(ethylamino)-1-[3-[2-[(3R)-3-hydroxy-1-methyl-2-oxo-pyrrolidin-3-yl]ethynyl]phenyl]pyrazolo[4,3-c]pyri-dine-3-carboxamide]	8.12 nM	4470 nM	0.05 nM
CN1CC[C@@](O)(C#Cc2cccc(-n3nc(C(N)=O)c4c(NC5CC5)nccc43)c2)C1=O [Compound 130, 4-(cyclopropylamino)-1-[3-[2-[(3R)-3-hydroxy-1-meth-yl-2-oxo-pyrrolidin-3-yl]eth-ynyl]phenyl]pyrazolo[4,3-c]pyridine-3-carboxamide]	53.1 nM	2000 nM	0.11 nM
Cc1cc2c(cn1)c(C(N)=O)nn2-c1cccc(C#C[C@]2(O)CCN(C)C2=O)c1 [Compound 131, 1-[3-[2-[(3R)-3-hydroxy-1-methyl-2-oxo-pyrrolidin-3-yl]ethynyl]phenyl]-6-methyl-pyrazolo[4,3-c]pyridine-3-carboxamide]	87 nM	20000 nM	0.31 nM
CN1CC[C@@](O)(C#Cc2cccc(-n3nc(C(N)=O)c4cnccc43)c2)C1=O [Compound 132, 1-[3-[2-[(3R)-3-hydroxy-1-methyl-2-oxo-pyrrolidin-3-yl]ethynyl]phenyl]pyrazolo [4,3-c]pyridine-3-carboxamide]	88.7 nM	20000 nM	0.378 nM
N#Cc1cc2c(cn1)c(C(N)=O)nn2-c1cccc(C#C[C@@]2(O)CCc3cccnc32)c1 [Compound 135, 6-cyano-1-[3-[2-[(7S)-7-hy-droxy-5,6-dihydrocyclopen-ta[b]pyridin-7-yl]ethynyl]phe-nyl]pyrazolo[4,3-c]pyridine-3-carboxamide]	91.4 nM	20000 nM	0.7 nM
CCOc1cc2c(cn1)c(C(N)=O)nn2-c1cccc(C#C[C@]2(O)CCN(C)C2=O)c1 [Compound 136, 6-ethoxy-1-[3-[2-[(3R)-3-hy-droxy-1-methyl-2-oxo-pyrroli-din-3-yl]ethynyl]phenyl] pyrazolo[4,3-c]pyridine-3-carboxamide]	72.6 nM	20000 nM	0.39 nM
CN1CC[C@@](O)(C#Cc2cccc(-n3nc(C(N)=O)c4cnc(N5CCCC5)cc43)c2)C1=O [Compound 137, 1-[3-[2-[(3R)-3-hydroxy-1-methyl-2-oxo-pyrrolidin-3-yl]ethynyl]phenyl]-6-pyrroli-din-1-yl-pyrazolo[4,3-c]pyri-dine-3-carboxamide]	33.8 nM	20000 nM	0.25 nM
COc1cc2c(cn1)c(C(N)=O)nn2-c1cccc(C#C[C@]2(O)CCN(C)C2=O)c1 [Compound 140, 1-[3-[2-[(3R)-3-hydroxy-1-methyl-2-oxo-pyrrolidin-3-yl]ethynyl]phenyl]-6-methoxy-pyrazolo[4,3-c]pyridine-3-carboxamide]	38.2 nM	8000 nM	0.05 nM
CCCC(=O)N(C)Cc1ccc2c(c1)c(C(N)=O)nn2-c1cc(C#C[C@]2(O)CCN(C)C2=O)ccn1 [Compound 142, 5-[[butanoyl(methyl)amino]methyl]-1-[4-[2-[(3R)-3-hy-droxy-1-methyl-2-oxo-pyrroli-din-3-yl]ethynyl]-2-pyri-dyl]indazole-3-carboxamide]	793 nM	20000 nM	1.71 nM
CN1CC[C@@](O)(C#Cc2cccc(-n3nc(C(N)=O)c4scnc43)c2)C1=O [Compound 144, 1-[3-[2-[(3R)-3-hydroxy-1-methyl-2-oxo-pyrrolidin-3-yl]ethynyl]phenyl]pyrazolo [3,4-d]thiazole-3-carboxamide]	33.1 nM	20000 nM	0.31 nM
CN1CC[C@@](O)(C#Cc2ccc(F)c(-n3nc(C(N)=O)c4c3CCC4)c2)C1=O [Compound 145, 1-[2-fluoro-5-[2-[(3R)-3-hy-droxy-1-methyl-2-oxo-pyrroli-din-3-yl]ethynyl]phenyl]-5,6-dihydro-4H-cyclopenta [c]pyrazole-3-carboxamide]	266 nM	20000 nM	1.24 nM
CN1CC[C@@](O)(C#Cc2cccc(-n3nc(C(N)=O)c4c3COC4)c2)C1=O [Compound 146, 1-[3-[2-[(3R)-3-hydroxy-1-methyl-2-oxo-pyrrolidin-3-yl]ethynyl]phenyl]-4,6-dihydro-furo[3,4-c]pyrazole-3-carbox-amide]	220 nM	20000 nM	1.77 nM
CN1CC[C@@](O)(C#Cc2cccc(-c3nn(C(N)=O)c4ccccc34)c2)C1=O [Compound 147, 3-[3-[2-[(3R)-3-hydroxy-1-methyl-2-oxo-pyrrolidin-3-yl]ethynyl]phenyl]indazole-1-carboxamide]	14.1 nM	20000 nM	0.324 nM
CN1CC[C@@](O)(C#Cc2cccc(-n3nc(C(N)=O)c4ccncc43)c2)C1=O [Compound 148, 1-[3-[2-[(3R)-3-hydroxy-1-methyl-2-oxo-pyrrolidin-3-yl]ethynyl]phenyl]pyrazolo [3,4-c]pyridine-3-carboxamide]	110 nM	20000 nM	0.38 nM
Cc1cc2c(C(N)=O)nn(-c3cccc(C#C[C@]4(O)CCN(C)C4=O)c3)c2cn1 [Compound 149, 1-[3-[2-[(3R)-3-hydroxy-1-methyl-2-oxo-pyrrolidin-3-yl]ethynyl]phenyl]-5-methyl-pyrazolo[3,4-c]pyridine-3-carboxamide]	215 nM	20000 nM	1.08 nM
COc1cc2c(C(N)=O)nn(-c3cccc(C#C[C@]4(O)CCN(C)C4=O)c3)c2cn1 [Compound 150, 1-[3-[2-[(3R)-3-hydroxy-1-methyl-2-oxo-pyrrolidin-3-yl]ethynyl]phenyl]-5-methoxy-pyrazolo[3,4-c]pyridine-3-carboxamide]	57.3 nM	20000 nM	0.29 nM
CN1CC[C@@](O)(C#Cc2cccc(-n3nc(C(N)=O)c4c3CCCN4)c2)C1=O [Compound 151, 1-[3-[2-[(3R)-3-hydroxy-1-methyl-2-oxo-pyrrolidin-3-yl]ethynyl]phenyl]-4,5,6,7-tetra-hydropyrazolo[4,3-b]pyri-dine-3-carboxamide]	1030 nM	2000 nM	3.96 nM
Cc1cc(C#C[C@]2(O)CCN(C)C2=O)cc(-n2nc(C(N)=O)c3cccnc32)c1 [Compound 152, 1-[3-[2-[(3R)-3-hydroxy-1-methyl-2-oxo-pyrrolidin-3-yl]ethynyl]-5-methyl-phenyl] pyrazolo[3,4-b]pyridine-3-carboxamide]	45.8 nM	20000 nM	0.87 nM
CN1CC[C@@](O)(C#Cc2cccc(-n3nc(C(N)=O)c4ccc(Cl)nc43)c2)C1=O [Compound 153, 6-chloro-1-[3-[2-[(3R)-3-hy-droxy-1-methyl-2-oxo-pyrroli-din-3-yl]ethynyl]phenyl] pyrazolo[3,4-b]pyridine-3-carboxamide]	132 nM	2000 nM	0.52 nM
COc1ccc2c(C(N)=O)nn(-c3cccc(C#C[C@]4(O)CCN(C)C4=O)c3)c2n1 [Compound 154, 1-[3-[2-[(3R)-3-hydroxy-1-methyl-2-oxo-pyrrolidin-3-yl]ethynyl]phenyl]-6-methoxy-pyrazolo[3,4-b]pyridine-3-carboxamide]	33.9 nM	2000 nM	0.05 nM
